PubChem BioAssay AID686920 (Broad Institute, 2013)

Each molecule was assayed on A673 NR0B1-luciferase reporter, viability-normalised luminescence (assay: NR0B1 reporter signal reduction in A673 cells – cell-based, luciferase luminescence, cherry-pick, EWS/Fli inhibitor project, dose response (AID 686920)).

Which AC35 does the source give for CCCn1c(C)cc(C(=O)CN2C(=O)c3ccccc3S2(=O)=O)c1C here?
The AC35 was 1.25 µM.

With Cc1cc(C)cc(N2C(=O)NC(=O)/C(=C\C=C\c3ccco3)C2=O)c1 as the molecule, how does the AC35 read?
Its AC35 is 4.31 µM.

With C(=Cc1c[nH]c2ccccc12)c1ccc2ccccc2n1 as the molecule, how does the AC35 read?
The AC35 was 2.22 µM.

How did the AC35 turn out when COC(=O)C[C@@H]1CC[C@@H]2[C@@H](COc3ccc(NC(=O)Nc4ccc(C#N)cc4)cc3C(=O)N2C)O1 was run?
Its AC35 is 56.2 µM.

C(=N\Nc1ccc2ccccc2n1)/c1ccc2c(c1)OCCO2 was tested. Which AC35 did it give?
The AC35 was 0.728 µM.

With O=C1NC(=S)NC(=O)C1=Cc1cccn1-c1ccc(O)cc1 as the molecule, how does the AC35 read?
Its AC35 is 19.9 µM.

How did the AC35 turn out when C[C@H]1CN([C@@H](C)CO)C(=O)Cc2cc(NC(=O)CCCCCC(=O)Nc3ccccc3N)ccc2O[C@H]1CN(C)Cc1ccc(Oc2ccccc2)cc1 was run?
The AC35 was 5.63 µM.

C[C@H]1CN([C@@H](C)CO)C(=O)Cc2cc(NC(=O)CCCCCC(=O)Nc3ccccc3N)ccc2O[C@H]1CN(C)Cc1ccc(Cl)c(Cl)c1 was tested. Which AC35 did it give?
The AC35 was 4.68 µM.

CCNC(=O)c1cc2c(c(-c3cccc(-c4cccc(OC)c4)c3)n1)[C@H](CCO)N([S@@](=O)C(C)(C)C)C2 was tested. Which AC35 did it give?
Its AC35 is 6.78 µM.

For CC1(C)N=C(N)N=C(N)N1c1ccc(OCCCOc2ccccc2)c(Cl)c1, which AC35 is on record?
The AC35 was 2.61 µM.

O=C(NCCc1ccccc1)c1ccccc1NC(=O)C1CCCO1 (stereo unspecified) was tested. Which AC35 did it give?
The AC35 was 6.89 µM.

With COc1ccc(C2=Nn3c(nnc3-c3ccccc3F)SC2)cc1OC1CCOC1 (stereo unspecified) as the molecule, how does the AC35 read?
The AC35 was 4.37 µM.

For C(=NNc1ccc2ccccc2n1)c1ccccn1, which AC35 is on record?
The AC35 was 1.55 µM.

Which AC35 does the source give for COc1cc(/C=C/C(=O)/C=C(O)/C=C/c2ccc(O)c(OC)c2)ccc1O here?
The AC35 was 5.92 µM.

With Cn1ccc2cc(-c3ccc4ncnc(NCc5cccs5)c4c3)ccc21 as the molecule, how does the AC35 read?
Its AC35 is 4.12 µM.

O=C1C(=O)N(CCS(=O)(=O)c2ccccc2)c2ccc(Cl)cc21 was tested. Which AC35 did it give?
The AC35 was 12.2 µM.

BrC(=C\c1ccccc1)/C=N/n1cnnc1 was tested. Which AC35 did it give?
Its AC35 is 7.17 µM.

How did the AC35 turn out when N#CC(=C1C=CC(=NO)C(Cl)=C1)c1ccccc1 was run?
Its AC35 is 5.85 µM.

How did the AC35 turn out when CC1(C(=O)NCc2ccco2)Cc2c(-c3cccc(C(N)=O)c3)ccnc2O1 (stereo unspecified) was run?
Its AC35 is 5.37 µM.

Which AC35 does the source give for Cc1cc(C)c2sc(NNC(=O)c3ccc(S(=O)(=O)N4CCc5ccccc5C4)cc3)nc2c1 here?
Its AC35 is 5.12 µM.

Which AC35 does the source give for COc1ccc(/C=C2\SC(=S)N(CCCC(=O)NNC(=O)c3ccccc3O)C2=O)cc1 here?
The AC35 was 9.15 µM.

With COc1ccc(/C=C(/C(=O)c2cccs2)N2C=CC=CC2=C(C#N)C#N)cc1 as the molecule, how does the AC35 read?
Its AC35 is 37.2 µM.

CCOc1ccc2nc(NC3=NC(c4ccc(OC)cc4)CC(=O)N3)nc(C)c2c1 (stereo unspecified) was tested. Which AC35 did it give?
The AC35 was 9.3 µM.

Which AC35 does the source give for COc1cc2c(cc1NC(=O)CN(C)Cc1ccc(OC)c(OC)c1)oc1ccccc12 here?
Its AC35 is 8.33 µM.

CCOc1ccc(/C=C2\CCc3ccccc3C2=O)cc1 was tested. Which AC35 did it give?
Its AC35 is 9.24 µM.

For C[C@@H]1CN([C@@H](C)CO)C(=O)c2cc(NS(=O)(=O)c3ccccc3)ccc2O[C@@H]1CN(C)Cc1ccc(C(=O)Nc2ccccc2N)cc1, which AC35 is on record?
Its AC35 is 9.16 µM.

For COc1ccc(/C=C2\Oc3ccccc3C2=O)cc1, which AC35 is on record?
The AC35 was 8.51 µM.

With CN(C)c1ncnc2c1ccn2C1OC(CO)C(O)C1O (stereo unspecified) as the molecule, how does the AC35 read?
The AC35 was 3.44 µM.

For CCCN1C(=O)/C(=C/c2nc3ccccc3c(=O)[nH]2)c2ccccc21, which AC35 is on record?
Its AC35 is 32.5 µM.

With COC(=O)c1cccc(NC(=O)NC(=O)c2ccccc2Cl)c1 as the molecule, how does the AC35 read?
Its AC35 is 0.215 µM.

For CC(=O)Nc1ccc(S(=O)(=O)Nc2ccc(N3CCCCC3)cc2)cc1, which AC35 is on record?
The AC35 was 8.66 µM.

With C#CCOCCOCCOCCNc1nc(N2CCN(C(=O)CCCCCCCCCCNC(=O)Cn3cc(C[C@@H](C)O)nn3)CC2)nc(N2CCN(C(=O)CCCCCCCCCCNC(=O)[C@H](CO)n3cc(CCCSC)nn3)CC2)n1 as the molecule, how does the AC35 read?
Its AC35 is 9.81 µM.

For CN1C(=O)c2cc(NC(=O)c3ccc(Cl)cc3)ccc2OC[C@@H]2O[C@@H](CC(=O)NCc3cccc(F)c3)CC[C@H]21, which AC35 is on record?
Its AC35 is 7.86 µM.

With Cc1ccc2c(=O)n3c(nc2c1)C(Cc1ccc(O)cc1)NC(=O)c1cc2ccccc2cc1-3 (stereo unspecified) as the molecule, how does the AC35 read?
Its AC35 is 6.25 µM.

For O=C1Nc2ccccc2C1=Nc1ccccc1-c1ccccc1, which AC35 is on record?
Its AC35 is 11.4 µM.

Which AC35 does the source give for C[C@H](CO)N1C[C@H](C)[C@H](CN(C)Cc2ccc(C(=O)Nc3ccccc3N)cc2)Oc2ccc(N(C)C)cc2C1=O here?
Its AC35 is 11.7 µM.

Cc1ccc(S(=O)(=O)N(C)C[C@@H]2Oc3cc(C#Cc4ccncc4)ccc3S(=O)(=O)N([C@@H](C)CO)C[C@H]2C)cc1 was tested. Which AC35 did it give?
The AC35 was 9.88 µM.

How did the AC35 turn out when COC1C(O)C(C)OC(OC2CCC3(C)C(CCC4C3C(O)CC3(C)C(C5=CC(=O)OC5)CCC43O)C2)C1O (stereo unspecified) was run?
Its AC35 is 0.183 µM.

With CN(C)c1ccc2c(c1)[C@@H]1C[C@@H](CC(=O)NCc3ccc(Oc4ccccc4)cc3)O[C@H](CO)[C@@H]1O2 as the molecule, how does the AC35 read?
Its AC35 is 5.8 µM.

How did the AC35 turn out when COC(=O)C[C@@H]1CC[C@@H]2[C@H](COc3ccc(NC(=O)c4ccc(C(F)(F)F)cc4)cc3C(=O)N2C)O1 was run?
The AC35 was 12.1 µM.

Which AC35 does the source give for CC(C)c1ccccc1NC(=O)COC(=O)CCN1C(=O)/C(=C\C=C\c2ccccc2)SC1=S here?
Its AC35 is 1.9 µM.

For C=CCn1c(O)c(N=Nc2ccccc2)c2ccccc21, which AC35 is on record?
The AC35 was 38.9 µM.

COc1ccccc1-c1ccc(OCCCN2CCC(C(O)(c3ccccc3)c3ccccc3)CC2)cc1 was tested. Which AC35 did it give?
Its AC35 is 13.3 µM.

With COC(=O)Cc1[nH]n(-c2nc3ccccc3s2)c(=O)c1C(C)=Nc1ccc(OC)cc1 as the molecule, how does the AC35 read?
The AC35 was 4.31 µM.

With CN1c2ccc(-c3ccc(C#N)cc3)cc2[C@H]2[C@H](CCN2S(=O)(=O)c2cccc(F)c2)[C@@H]1CO as the molecule, how does the AC35 read?
The AC35 was 4.64 µM.

C[C@H]1CN([C@@H](C)CO)C(=O)c2cccc(NC(=O)CCCCCC(=O)Nc3ccccc3N)c2O[C@@H]1CN(C)Cc1ccc2c(c1)OCO2 was tested. Which AC35 did it give?
Its AC35 is 15.2 µM.

For C[C@@H]1CCCCO[C@@H](CN(C)C(=O)Cc2ccccc2)[C@@H](C)CN([C@@H](C)CO)C(=O)c2cc(NS(=O)(=O)c3ccc(F)cc3)ccc2O1, which AC35 is on record?
The AC35 was 43.9 µM.

For O=C(NC1CCCC1)N1CCCCN2[C@@H](CO)[C@@H](c3ccc(/C=C/c4ccccc4)cc3)[C@@H]2C1, which AC35 is on record?
The AC35 was 14.3 µM.

With Cc1ccc2c(c1)C(=O)N1[C@H]3c4cc(Br)ccc4OC[C@@H]3[C@H](c3ccccc3)[C@]1(C)C(=O)N2 as the molecule, how does the AC35 read?
The AC35 was 13.7 µM.

How did the AC35 turn out when CN(C)c1ccc(N=Nc2ccc(C(=O)O)cc2)cc1 was run?
Its AC35 is 5.73 µM.

With CCOc1ccc(-c2cc(CCCC(=O)N3CCN(c4ccc(OC)cc4)CC3)no2)cc1 as the molecule, how does the AC35 read?
The AC35 was 27.6 µM.

For O=C1c2ccc3c4c(ccc(c24)C(=O)N1c1cccc(O)c1)C(=O)N(c1cccc(O)c1)C3=O, which AC35 is on record?
Its AC35 is 5.35 µM.

C[C@@H]1CN([C@H](C)CO)C(=O)c2cc(NC(=O)Nc3ccccc3)ccc2O[C@@H]1CN(C)Cc1ccc(C(=O)Nc2ccccc2N)cc1 was tested. Which AC35 did it give?
Its AC35 is 8.74 µM.

C=CCOc1ccccc1C(=O)/C=C1/C(=O)Nc2ccccc21 was tested. Which AC35 did it give?
Its AC35 is 14.5 µM.

How did the AC35 turn out when C[C@@H]1CN([C@H](C)CO)C(=O)CCCn2nncc2CO[C@H]1CN(C)Cc1ccc(Oc2ccccc2)cc1 was run?
The AC35 was 34.1 µM.

For CCCCc1c(-c2ccccc2OC)ncn1Cc1ccc(C(C)(C)C)cc1, which AC35 is on record?
The AC35 was 10 µM.

For COc1ccc(/C=C/C(=O)c2cc(F)ccc2OC(=O)c2ccccc2OC)cc1OC, which AC35 is on record?
Its AC35 is 1.59 µM.

Which AC35 does the source give for COc1ccc(CN(C)C[C@H]2Oc3ccc(NC(=O)CCCCCC(=O)Nc4ccccc4N)cc3CC(=O)N([C@H](C)CO)C[C@H]2C)cc1 here?
Its AC35 is 15.4 µM.

With CCCCC[C@H](C)N1C[C@H](COCc2ccccc2)Oc2cc(N3CC[C@@H](N(C)C)C3)ccc2S1(=O)=O as the molecule, how does the AC35 read?
The AC35 was 34.7 µM.

CCc1ccc2oc(C(=O)N3CCN(c4ccccc4OC)CC3)cc(=O)c2c1 was tested. Which AC35 did it give?
The AC35 was 10.7 µM.

Which AC35 does the source give for COc1ccc(C(C)(O)c2nc(-c3cccc(F)c3)cs2)cc1 (stereo unspecified) here?
The AC35 was 8.04 µM.

With COc1ccc(S(=O)(=O)N=Nc2c(O)[nH]c3ccccc23)cc1 as the molecule, how does the AC35 read?
Its AC35 is 34.7 µM.

How did the AC35 turn out when C=C1C(=O)[C@@]23[C@H](O)C[C@@H]4C(C)(C)CC[C@H](O)[C@@]4(C)[C@@H]2CC[C@@H]1[C@H]3O was run?
Its AC35 is 9.06 µM.

With CCN(Cc1ccccc1)c1ccc(/C=N/N=C(N)N)cc1 as the molecule, how does the AC35 read?
The AC35 was 10.6 µM.

With O=C(C[C@@H]1C[C@H]2c3cc(NS(=O)(=O)c4ccc(F)cc4)ccc3O[C@H]2[C@H](CO)O1)NCc1ccc(-c2ccccc2)cc1 as the molecule, how does the AC35 read?
The AC35 was 2.03 µM.

For COc1ccc(NS(=O)(=O)c2cc(NC(=O)CNC(=O)c3cccc(OC)c3)ccc2C)cc1, which AC35 is on record?
The AC35 was 66.3 µM.
